Test results published in ChEMBL document CHEMBL4610114, “Fragment-Based Discovery of Pyrazolopyridones as JAK1 Inhibitors with Excellent Subtype Selectivity” (J Med Chem, 2020).
≈ marks a conversion by molar mass, not a printed value.

Experiments:
physchem [1] = conditions: octanol/water
Description: Lipophilicity, logD of the compound by shake flask assay

[2] = target: T1, Tyrosine-protein kinase JAK3 (Homo sapiens, UniProt P52333)
T1 sequence (P52333 whole entry): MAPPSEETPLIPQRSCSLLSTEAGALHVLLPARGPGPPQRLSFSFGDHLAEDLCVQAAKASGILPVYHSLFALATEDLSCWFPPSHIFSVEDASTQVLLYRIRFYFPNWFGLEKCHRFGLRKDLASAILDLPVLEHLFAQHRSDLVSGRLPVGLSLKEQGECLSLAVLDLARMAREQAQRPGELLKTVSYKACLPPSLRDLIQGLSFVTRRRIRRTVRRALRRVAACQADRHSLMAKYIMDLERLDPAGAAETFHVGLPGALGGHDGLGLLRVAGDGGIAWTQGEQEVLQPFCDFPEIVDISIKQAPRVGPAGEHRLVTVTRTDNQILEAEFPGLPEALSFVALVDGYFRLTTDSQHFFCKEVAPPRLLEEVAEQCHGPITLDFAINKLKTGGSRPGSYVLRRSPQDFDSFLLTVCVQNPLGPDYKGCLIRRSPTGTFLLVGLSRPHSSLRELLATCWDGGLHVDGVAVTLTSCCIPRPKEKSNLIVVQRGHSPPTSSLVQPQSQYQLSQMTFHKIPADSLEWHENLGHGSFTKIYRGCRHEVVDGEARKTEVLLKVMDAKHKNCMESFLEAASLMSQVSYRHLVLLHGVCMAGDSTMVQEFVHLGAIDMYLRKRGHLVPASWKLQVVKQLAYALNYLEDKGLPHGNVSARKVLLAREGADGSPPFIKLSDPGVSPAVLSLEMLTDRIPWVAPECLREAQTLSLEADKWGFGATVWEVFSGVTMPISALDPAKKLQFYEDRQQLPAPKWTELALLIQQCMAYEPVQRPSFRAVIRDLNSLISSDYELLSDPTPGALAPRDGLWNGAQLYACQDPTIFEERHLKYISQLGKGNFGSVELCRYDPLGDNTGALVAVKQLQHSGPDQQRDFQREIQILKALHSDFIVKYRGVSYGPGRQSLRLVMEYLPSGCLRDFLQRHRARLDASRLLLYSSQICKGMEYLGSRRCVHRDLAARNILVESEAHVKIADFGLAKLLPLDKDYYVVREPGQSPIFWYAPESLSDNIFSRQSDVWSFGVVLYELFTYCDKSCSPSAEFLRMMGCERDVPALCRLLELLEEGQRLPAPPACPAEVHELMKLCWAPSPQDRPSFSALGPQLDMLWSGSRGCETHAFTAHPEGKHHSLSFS

in vitro [3] = conditions: human, liver microsomes
Description: Apparent intrinsic clearance in human liver microsomes

[4] = target: T2, Tyrosine-protein kinase JAK2 (Homo sapiens, UniProt O60674)
T2 sequence (O60674 whole entry): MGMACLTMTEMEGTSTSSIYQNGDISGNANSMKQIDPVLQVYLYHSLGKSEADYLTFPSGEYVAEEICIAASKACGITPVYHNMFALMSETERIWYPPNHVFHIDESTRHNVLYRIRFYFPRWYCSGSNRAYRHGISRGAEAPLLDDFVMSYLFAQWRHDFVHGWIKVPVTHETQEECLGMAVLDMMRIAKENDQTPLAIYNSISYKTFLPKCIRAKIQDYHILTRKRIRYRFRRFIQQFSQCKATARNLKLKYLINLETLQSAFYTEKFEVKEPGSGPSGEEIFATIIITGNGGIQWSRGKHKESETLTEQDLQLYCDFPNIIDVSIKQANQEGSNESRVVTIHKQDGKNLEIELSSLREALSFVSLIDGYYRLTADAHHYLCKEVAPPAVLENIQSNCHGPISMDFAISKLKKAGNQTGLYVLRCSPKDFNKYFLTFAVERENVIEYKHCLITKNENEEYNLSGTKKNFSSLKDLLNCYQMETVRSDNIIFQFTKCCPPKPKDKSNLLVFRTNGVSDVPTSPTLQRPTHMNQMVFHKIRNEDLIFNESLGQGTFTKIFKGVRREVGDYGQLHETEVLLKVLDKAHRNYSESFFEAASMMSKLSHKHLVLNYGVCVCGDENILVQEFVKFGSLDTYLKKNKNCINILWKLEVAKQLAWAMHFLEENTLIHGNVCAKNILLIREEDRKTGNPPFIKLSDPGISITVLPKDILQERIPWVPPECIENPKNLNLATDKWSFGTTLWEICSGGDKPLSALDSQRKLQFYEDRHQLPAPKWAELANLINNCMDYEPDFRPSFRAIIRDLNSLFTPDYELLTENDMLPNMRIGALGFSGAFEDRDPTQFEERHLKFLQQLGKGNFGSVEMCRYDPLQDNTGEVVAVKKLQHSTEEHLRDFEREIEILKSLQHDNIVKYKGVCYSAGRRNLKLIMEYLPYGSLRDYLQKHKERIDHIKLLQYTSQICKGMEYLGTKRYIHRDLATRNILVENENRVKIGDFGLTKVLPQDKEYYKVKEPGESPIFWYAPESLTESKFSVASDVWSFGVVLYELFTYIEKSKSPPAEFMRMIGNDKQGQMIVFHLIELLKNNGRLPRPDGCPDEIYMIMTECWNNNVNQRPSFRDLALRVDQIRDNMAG

[5] = target: T3, Tyrosine-protein kinase JAK1 (Homo sapiens, UniProt P23458)
T3 sequence (P23458 whole entry): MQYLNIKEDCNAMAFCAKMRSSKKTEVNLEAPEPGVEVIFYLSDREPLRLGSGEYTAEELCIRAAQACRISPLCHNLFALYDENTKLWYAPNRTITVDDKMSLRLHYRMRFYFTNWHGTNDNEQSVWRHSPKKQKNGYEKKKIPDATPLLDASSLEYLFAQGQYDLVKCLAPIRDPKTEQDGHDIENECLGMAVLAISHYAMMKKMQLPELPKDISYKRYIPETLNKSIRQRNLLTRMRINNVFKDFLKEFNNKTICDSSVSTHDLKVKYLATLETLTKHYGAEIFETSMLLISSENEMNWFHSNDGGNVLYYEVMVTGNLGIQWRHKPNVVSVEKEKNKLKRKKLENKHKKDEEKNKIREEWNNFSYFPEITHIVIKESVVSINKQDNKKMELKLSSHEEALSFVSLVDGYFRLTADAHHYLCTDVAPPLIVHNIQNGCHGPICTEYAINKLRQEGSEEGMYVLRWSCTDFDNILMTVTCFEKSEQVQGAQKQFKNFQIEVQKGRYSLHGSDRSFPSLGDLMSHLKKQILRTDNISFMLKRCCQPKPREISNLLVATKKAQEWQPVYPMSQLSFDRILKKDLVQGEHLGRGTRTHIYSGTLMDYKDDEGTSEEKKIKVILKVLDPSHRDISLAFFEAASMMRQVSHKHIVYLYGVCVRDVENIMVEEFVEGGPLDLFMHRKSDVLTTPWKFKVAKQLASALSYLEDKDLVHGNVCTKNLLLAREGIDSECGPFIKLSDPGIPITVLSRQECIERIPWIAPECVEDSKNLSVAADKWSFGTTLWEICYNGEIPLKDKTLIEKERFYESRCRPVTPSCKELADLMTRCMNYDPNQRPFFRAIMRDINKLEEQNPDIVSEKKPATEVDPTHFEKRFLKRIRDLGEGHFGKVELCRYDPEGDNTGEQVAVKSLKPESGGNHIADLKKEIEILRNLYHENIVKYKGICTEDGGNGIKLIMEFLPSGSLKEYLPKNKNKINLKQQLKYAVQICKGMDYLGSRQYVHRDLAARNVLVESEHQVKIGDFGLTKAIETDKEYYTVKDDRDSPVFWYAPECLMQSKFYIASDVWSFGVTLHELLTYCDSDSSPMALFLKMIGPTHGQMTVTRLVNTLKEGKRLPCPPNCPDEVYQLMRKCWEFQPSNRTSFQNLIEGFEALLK
Description: Inhibition of JAK1 in human STAT6-bla-RA1 cells assessed as reduction in IL4-induced STAT6-signalling pre-incubated for 1 hrs before human recombinant IL4 addition and further incubated for 4 hrs fluorescence based assay

[6] = target: T3, Tyrosine-protein kinase JAK1; remark: listed apart in the source
[7] = target: T2, Tyrosine-protein kinase JAK2; remark: listed apart in the source
Description: Inhibition of JAK2 in human STAT5-irf1-bla TF1 cells assessed as reduction in EPO-induced STAT5-signalling pre-incubated for 1 hrs before EPO addition and further incubated for 4 hrs fluorescence based assay

physchem [8] = conditions: PBS buffer, pH 7.4
Description: Aqueous solubility in PBS buffer at pH 7.4 by HPLC analysis

[9] = target: Non-receptor tyrosine-protein kinase TYK2 (Homo sapiens, UniProt P29597)
Non-receptor tyrosine-protein kinase TYK2, sequence (P29597 whole entry): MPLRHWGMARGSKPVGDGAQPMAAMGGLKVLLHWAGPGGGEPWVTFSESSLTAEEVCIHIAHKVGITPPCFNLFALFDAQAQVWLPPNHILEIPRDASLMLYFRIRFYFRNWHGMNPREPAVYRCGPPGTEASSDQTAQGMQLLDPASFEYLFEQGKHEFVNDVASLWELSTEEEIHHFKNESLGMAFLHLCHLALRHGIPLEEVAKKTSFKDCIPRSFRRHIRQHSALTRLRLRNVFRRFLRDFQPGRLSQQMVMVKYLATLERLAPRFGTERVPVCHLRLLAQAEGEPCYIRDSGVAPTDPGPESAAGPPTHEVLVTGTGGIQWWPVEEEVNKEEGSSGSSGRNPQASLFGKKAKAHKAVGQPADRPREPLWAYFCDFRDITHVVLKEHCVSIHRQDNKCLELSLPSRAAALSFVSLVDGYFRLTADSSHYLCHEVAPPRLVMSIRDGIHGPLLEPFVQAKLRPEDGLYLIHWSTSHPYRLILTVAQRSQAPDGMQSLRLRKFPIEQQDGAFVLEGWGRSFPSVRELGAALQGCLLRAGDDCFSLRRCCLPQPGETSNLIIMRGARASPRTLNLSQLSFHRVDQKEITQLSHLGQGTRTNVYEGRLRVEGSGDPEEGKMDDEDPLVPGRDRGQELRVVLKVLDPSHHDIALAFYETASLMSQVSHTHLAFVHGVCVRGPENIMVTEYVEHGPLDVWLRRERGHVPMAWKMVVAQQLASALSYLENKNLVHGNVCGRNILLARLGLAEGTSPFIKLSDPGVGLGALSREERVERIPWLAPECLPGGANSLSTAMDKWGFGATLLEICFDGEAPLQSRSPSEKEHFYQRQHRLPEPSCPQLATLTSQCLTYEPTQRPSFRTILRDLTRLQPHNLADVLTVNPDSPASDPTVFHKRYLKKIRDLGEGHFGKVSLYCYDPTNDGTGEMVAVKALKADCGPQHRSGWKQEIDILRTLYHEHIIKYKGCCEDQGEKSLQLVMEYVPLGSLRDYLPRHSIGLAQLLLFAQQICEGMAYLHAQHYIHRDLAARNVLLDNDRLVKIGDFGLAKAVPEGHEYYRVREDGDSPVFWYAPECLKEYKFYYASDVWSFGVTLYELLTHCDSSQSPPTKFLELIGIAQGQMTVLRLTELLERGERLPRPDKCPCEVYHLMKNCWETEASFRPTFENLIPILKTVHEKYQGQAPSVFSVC

[10] = Oral bioavailability in rat at […]; type: ADME, organism-based; conditions: in vivo
Cytochrome P450 3A4 = Cytochrome P450 3A4 (Homo sapiens, UniProt P08684); assay: Inhibition of CYP3A4 (unknown origin) up to 25 uM; type: ADME
[11] = Drug absorption in rat at […], po; type: ADME, organism-based; conditions: in vivo, read-out: Fabs
[12] = Protein binding in rat plasma assessed as unbound fraction; type: ADME, cell-free
in vitro [13] = conditions: rat, liver microsomes
Description: Apparent intrinsic clearance in rat liver microsomes

Cytochrome P450 1A2 = target: T4, Cytochrome P450 1A2 (Homo sapiens, UniProt P05177); assay: Inhibition of CYP1A2 (unknown origin) up to 25 uM; type: ADME
T4 sequence (P05177 whole entry): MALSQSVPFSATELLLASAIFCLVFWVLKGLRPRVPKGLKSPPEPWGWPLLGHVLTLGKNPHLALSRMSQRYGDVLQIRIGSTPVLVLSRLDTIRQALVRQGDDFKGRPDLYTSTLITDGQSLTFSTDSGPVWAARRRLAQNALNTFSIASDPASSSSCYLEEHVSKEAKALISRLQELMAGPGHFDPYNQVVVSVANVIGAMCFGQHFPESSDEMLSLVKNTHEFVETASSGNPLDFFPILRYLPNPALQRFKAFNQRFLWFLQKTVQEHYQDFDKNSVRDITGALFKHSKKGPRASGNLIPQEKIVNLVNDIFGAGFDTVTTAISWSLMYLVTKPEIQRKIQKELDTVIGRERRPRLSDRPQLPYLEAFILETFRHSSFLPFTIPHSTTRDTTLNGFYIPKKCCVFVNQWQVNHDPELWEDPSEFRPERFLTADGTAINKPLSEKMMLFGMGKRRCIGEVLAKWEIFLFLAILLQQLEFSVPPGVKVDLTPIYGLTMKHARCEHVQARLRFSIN

[14] = target: Voltage-gated inwardly rectifying potassium channel KCNH2 (Homo sapiens, UniProt Q12809); assay: Binding affinity to human ERG at 30 uM
[15] = Half life in rat at […], po or 0.06 mg/kg, iv; type: ADME, organism-based; conditions: in vivo
Cytochrome P450 2C19 = Cytochrome P450 2C19 (Homo sapiens, UniProt P33261); assay: Inhibition of CYP2C19 (unknown origin) up to 25 uM; type: ADME
Cytochrome P450 2C19, sequence (P33261 whole entry): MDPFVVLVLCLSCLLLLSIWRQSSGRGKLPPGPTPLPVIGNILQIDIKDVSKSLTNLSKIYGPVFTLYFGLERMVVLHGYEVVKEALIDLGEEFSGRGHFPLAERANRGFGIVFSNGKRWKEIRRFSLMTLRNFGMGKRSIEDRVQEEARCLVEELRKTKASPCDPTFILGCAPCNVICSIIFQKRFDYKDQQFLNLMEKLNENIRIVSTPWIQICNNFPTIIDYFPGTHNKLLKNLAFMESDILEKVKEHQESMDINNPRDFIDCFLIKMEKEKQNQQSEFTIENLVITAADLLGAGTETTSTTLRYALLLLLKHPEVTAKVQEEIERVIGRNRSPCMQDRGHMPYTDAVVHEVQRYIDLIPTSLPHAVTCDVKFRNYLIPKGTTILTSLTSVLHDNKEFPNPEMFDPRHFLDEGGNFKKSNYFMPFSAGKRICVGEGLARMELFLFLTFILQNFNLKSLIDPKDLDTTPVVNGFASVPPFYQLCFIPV

[16] = Terminal Phase volume of distribution […] in rat at […], po or 0.06 mg/kg, iv; type: ADME, organism-based; conditions: in vivo, read-out: Vbeta
Cytochrome P450 2C9 = Cytochrome P450 2C9 (Homo sapiens, UniProt P11712); assay: Inhibition of CYP2C9 (unknown origin) up to 25 uM; type: ADME
in vitro [17] = conditions: rat, hepatocytes
Description: Apparent intrinsic clearance in rat hepatocytes

[18] = target: Fibroblast growth factor receptor 1 (Homo sapiens) (UniProt P11362); assay: Inhibition of human FGFR1 cytoplasmic domain (398 to 822(end) residues) at 1 mM ATP relative to control
Fibroblast growth factor receptor 1 (Homo sapiens), sequence (P11362 22-822 limits assumed): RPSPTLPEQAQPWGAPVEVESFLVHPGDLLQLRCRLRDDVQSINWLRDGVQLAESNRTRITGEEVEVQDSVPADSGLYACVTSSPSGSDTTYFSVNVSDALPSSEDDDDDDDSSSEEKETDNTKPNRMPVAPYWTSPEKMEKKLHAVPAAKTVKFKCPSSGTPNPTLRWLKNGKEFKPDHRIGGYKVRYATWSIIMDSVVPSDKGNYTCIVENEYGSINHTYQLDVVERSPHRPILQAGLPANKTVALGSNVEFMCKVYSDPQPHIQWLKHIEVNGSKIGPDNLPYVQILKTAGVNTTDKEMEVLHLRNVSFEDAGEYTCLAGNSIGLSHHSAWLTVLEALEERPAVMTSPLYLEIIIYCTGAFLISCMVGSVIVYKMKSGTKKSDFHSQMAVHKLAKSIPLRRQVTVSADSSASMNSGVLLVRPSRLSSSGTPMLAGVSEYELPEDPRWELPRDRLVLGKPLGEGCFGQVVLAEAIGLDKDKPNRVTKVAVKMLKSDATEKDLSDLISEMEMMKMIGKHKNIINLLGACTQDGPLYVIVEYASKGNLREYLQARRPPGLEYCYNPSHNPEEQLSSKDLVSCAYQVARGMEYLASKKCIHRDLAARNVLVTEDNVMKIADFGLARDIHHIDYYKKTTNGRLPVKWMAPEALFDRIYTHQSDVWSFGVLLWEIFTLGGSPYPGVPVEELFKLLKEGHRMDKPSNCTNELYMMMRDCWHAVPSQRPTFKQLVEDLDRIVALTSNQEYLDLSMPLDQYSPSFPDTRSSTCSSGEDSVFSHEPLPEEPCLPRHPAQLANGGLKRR

[19] = Clearance in rat at […], po or 0.06 mg/kg, iv; type: ADME, organism-based; conditions: in vivo
Cytochrome P450 2D6 = Cytochrome P450 2D6 (Homo sapiens, UniProt P10635); assay: Inhibition of CYP2D6 (unknown origin) up to 25 uM; type: ADME
[20] = Apparent permeability in human Caco2 cells; type: ADME, cell-based; conditions: Caco-2

SMILES | logD (physchem [1]) | IC50 [2] | CLint scaled (in vitro [3]) | IC50 [4] | IC50 [5] | IC50 [6] | IC50 [7] | solubility (physchem [8]) | IC50 [9] | further results
Cc1[nH]nc2[nH]c(=O)cc([C@@H]3C[C@@H]4C[C@H]3C[C@@H]4CC#N)c12 | 1.5 | 220 nM | < 8 mL/min/kg | 150 nM |  |  | 24000 nM | > 92 µM | 220 nM | 
Cc1[nH]nc2[nH]c(=O)cc([C@H]3CC[C@H](CC(=O)N4CC(C#N)C4)CC3)c12 | 0.5 | 97 nM | < 8 mL/min/kg | 64 nM | > 30000 nM | 13 nM | > 30000 nM | 540 µM (≈ 191 µg/mL) |  | 
Cc1[nH]nc2[nH]c(=O)cc([C@H]3C[C@H]4C[C@@H]3C[C@@H]4CC#N)c12 | 1.5 | 88 nM | < 8 mL/min/kg | 12 nM |  |  | 2800 nM | 89 µM (≈ 25.1 µg/mL) | 20 nM | bioavailability [10]: 14%; inhibition (INH) (Cytochrome P450 3A4): Not Active; Fa [11]: 41%; fraction unbound [12]: 0.22; CLint scaled (in vitro [13]): < 15 mL/min/kg; inhibition (INH) (Cytochrome P450 1A2): Not Active; Activity [14]: Not Active; half-life [15]: 18 min; inhibition (INH) (Cytochrome P450 2C19): Not Active; Vd [16]: 1.2 L/kg; inhibition (INH) (Cytochrome P450 2C9): Not Active; CLint scaled (in vitro [17]): 25 mL/min/kg; inhibition [18]: 32%; clearance [19]: 53 mL/min/kg; inhibition (INH) (Cytochrome P450 2D6): Not Active; Papp [20]: 0.7 ×10⁻⁶ cm/s
Cc1[nH]nc2[nH]c(=O)cc(C3CCCC3)c12 | 2.2 | 670 nM |  | 13000 nM | 4300 nM | 72 nM | > 40000 nM | 39 µM (≈ 8.47 µg/mL) | 830 nM | 
Cc1[nH]nc2[nH]c(=O)cc([C@H]3CC[C@H](CC(=O)N4CCC(C)(C)CC4)CC3)c12 | 2.9 | 57 nM | 70 mL/min/kg | 32 nM | 110 nM | 3.4 nM | 3400 nM |  |  | 
Cc1[nH]nc2[nH]c(=O)cc(CC3CCC3)c12 | 2.2 | 480 nM |  | 570 nM | 3400 nM | 120 nM | > 40000 nM | 16 µM (≈ 3.48 µg/mL) | 1100 nM | 

Further molecules by falling IC50 [2], results first:

logD (physchem [1]) | IC50 [2] | CLint scaled (in vitro [3]) | IC50 [4] | IC50 [5] | IC50 [6] | IC50 [7] | solubility (physchem [8]) | IC50 [9] | SMILES | further results
2.1 | 1400 nM |  | 2800 nM | 4800 nM | 140 nM | > 40000 nM | 100 µM (≈ 26.1 µg/mL) | 650 nM | Cc1[nH]nc2[nH]c(=O)c(CO)c(C3CCCCC3)c12 | 
1.6 | 970 nM | < 8 mL/min/kg | 360 nM |  |  | > 43000 nM | 290 µM (≈ 81.9 µg/mL) | 330 nM | Cc1[nH]nc2[nH]c(=O)cc([C@H]3C[C@H]4C[C@@H]3C[C@H]4CC#N)c12 | 
1.3 | 480 nM |  | 120 nM | 1700 nM | 6.4 nM | > 7000 nM | 43 µM (≈ 15.1 µg/mL) | 220 nM | Cc1[nH]nc2[nH]c(=O)cc([C@H]3CC[C@H](NC(=O)[C@@H]4CC4(F)F)CC3)c12 | 
0.7 | 150 nM | < 8 mL/min/kg | 89 nM | 14000 nM | 11 nM | > 45000 nM | 85 µM (≈ 31.2 µg/mL) |  | Cc1[nH]nc2[nH]c(=O)cc([C@H]3CC[C@H](CC(=O)N4CCC(C#N)C4)CC3)c12 (mixture of isomers) | 
3 | 88 nM | 87 mL/min/kg |  | 250 nM | 3 nM |  | 2.4 µM (≈ 1 µg/mL) |  | Cc1[nH]nc2[nH]c(=O)cc([C@H]3CC[C@H](CC(=O)N4CC(Cc5ccccc5)C4)CC3)c12 | 
3 | 63 nM | 75 mL/min/kg | 19 nM | 110 nM | 2.1 nM | 2400 nM |  |  | Cc1[nH]nc2[nH]c(=O)cc([C@H]3CC[C@H](CC(=O)N4CCC(c5ccccc5)C4)CC3)c12 (mixture of isomers) | 
